Experimental data as given in paper PMC6389928, “Biomolecular Interaction, Anti-Cancer and Anti-Angiogenic Properties of Cobalt(III) Schiff Base Complexes” (Scientific Reports, 2019).
Where two headings read alike, the source gives them in different places.

Tests used:
DNA [1] = settings: cited from earlier work
DNA [2] = assay: Viscosity measurement of DNA; type: binding; settings: 30.0 ± 0.2 °C, increasing amounts of compound
Excerpt: The mode of interaction between DNA and complexes has been further confirmed using viscosity measurements. The intercalation between DNA and metal complex causes lengthening of the DNA helix and increases DNA’s relative viscosity. Ethidium bromide (EB) is a well known DNA intercalator which was used as a standard to make sure our viscosity determination was working properly. […] The increase in relative viscosity follows the DNA-intercalating ability and the order of relative viscosity is EB > 2 > 1.
CD spectra of CT–DNA in the absence and presence of cobalt(III) complexes 1 and 2 were recorded in phosphate buffer. Each sample solution was scanned in the range of 200–320 nm, and final CD spectra were generated after averaging three scans subtracting the buffer background. Viscosity experiments were performed using an Ubbelohde viscometer at a constant temperature (30.0 ± 0.2 °C).

A549 lung carcinoma cell = assay: MTT assay on A549 cells; settings: A549 lung cancer cells, tested separately
Excerpt: The anti-proliferative property of the complexes 1 and 2 at different concentrations on A549 lung carcinoma cell and monkey kidney epithelial cell Vero was examined by adopting MTT assay (Fig. S7). […] The naked cobalt acetate and ligands salen and salophen were separately tested on A549 cells to understand if metal chelation is the principal basis of the anticancer activity of the complexes.
Culture: Human lung cancer cells (A549) were received from National Centre for Cell Science (NCCS) Pune, India. Vero cells were obtained from ATCC. The cells were grown at humidified atmosphere of 5% CO2 in an incubator at 37 °C (Forma, Thermo Scientific, USA) in DMEM medium (Invitrogen) containing 10% FBS (Sigma-Aldrich, St. Louis, Mo, USA), 100 μg/mL of penicillin and 100 μg/mL streptomycin were used as antibiotics (Himedia, Mumbai, India). […] The cells were seeded in 96 well plates (5000 A549 cells per well) and allowed to attach for 24 h. The cells were then incubated with different concentrations of the metal complexes 1 and 2 dissolved in 100% dimethyl sulfoxide (DMSO) (Sigma-Aldrich) and prepared to a final dilution of 0.02% of DMSO.
In the determination of IC50 value, 0.02% DMSO was used as the solvent control. After the end of incubation period (24 h), the medium was aspirated carefully and replaced with new medium. The formazan formed was dissolved in100 μL of 100% DMSO to each well. The absorbance was monitored at 570 nm using a 96 well plate reader (Bio-Rad, Hercules, California, USA). All experiments were repeated for a minimum of three times when each experiment was done in two replicates.

Row | Compound | Kb (DNA [1]) [M⁻¹] | concentration up to which not cytotoxic (A549 lung carcinoma cell) [µM] | also measured
1 | CC[n+]1c(-c2ccccc2)c2cc(N)ccc2c2ccc(N)cc21 [EB, ethidium bromide, reference compound] |  |  | Kb (DNA [1]; typical classical intercalator): 494000 M⁻¹; effect on relative viscosity of DNA (DNA [2]): significant increase in the viscosity of the DNA solutions
2 | CCCCCCCCCCCCN.CCCCCCCCCCCCN.NCCNCCN.[Cl-].[Co+3].[O-][Cl+3]([O-])([O-])[O-].[O-][Cl+3]([O-])([O-])[O-] [[Co(dien)(DA)2Cl](ClO4)2] | 14318 |  | 
3 | CCCCCCCCCCCCN.NCCNCCN.[Cl-].[Cl-].[Co+3].[O-][Cl+3]([O-])([O-])[O-] [[Co(dien)(DA)Cl2](ClO4)] | 3110.8 |  | 
4 | CCCCCCCCCCCN.[Cl-].[Co+3].[O-][Cl+3]([O-])([O-])[O-].[O-][Cl+3]([O-])([O-])[O-].c1ccc(-c2ccccn2)nc1.c1ccc(-c2ccccn2)nc1 [cis-[Co(bpy)2(C11H23NH2)Cl](ClO4)2] | 22100 |  | 
5 | CCCCCCCCCCCCCCN.[Cl-].[Co+3].[O-][Cl+3]([O-])([O-])[O-].[O-][Cl+3]([O-])([O-])[O-].c1ccc(-c2ccccn2)nc1.c1ccc(-c2ccccn2)nc1 [cis-[Co(bpy)2(C14H29NH2)Cl](ClO4)2] | 28600 |  | 
6 | CCCCCCCCCCCCCCN.NCCN.NCCN.[Cl-].[Co+3].[O-][Cl+3]([O-])([O-])[O-].[O-][Cl+3]([O-])([O-])[O-] [cis-[Co(en)2(C14H29NH2)Cl](ClO4)2] | 25900 |  | 
7 | CC(=O)[O-].CC(=O)[O-].O.O.O.O.[Co+2] [cobalt acetate, Cobalt(II) acetate tetrahydrate] |  | > 200 | 
8 | Oc1ccccc1C=NCCN=Cc1ccccc1O [salen, N,N’-bis(salicylidene)ethylenediamine] |  | > 200 | 
9 | Oc1ccccc1C=Nc1ccccc1N=Cc1ccccc1O [salophen, N,N’-bis(salicylidene)-1,2-phenylenediamine] |  | > 200 | 
10 | [Co(dien)(CA)Cl2](ClO4) | 9005.2 |  | 
